Assay results: article PMC1971528, “Pharmacokinetic studies with the antifolate C2-desamino-C2-methyl-N10-propargyl-2'-trifluoromethyl-5,8-dideazafolic acid (CB3988) in mice and rats using in vivo 19F-NMR spectroscopy” (British Journal of Cancer, 1990)
Where two headings read alike, the source gives them in different places.

Assays:
[1] = design: method as in Alison et al., 1985; Newell et al., 1986; conditions: patients; ref Alison et al., 1985; Newell et al., 1986; cited from earlier work
[2] = mice, ref Newell et al., cited from earlier work
[3] = qualitative statement, no reference given; cited from earlier work
[4] = mice, 1986, cited from earlier work
[5] = cited from earlier work
[6] = test system: thymidylate synthase; design: method as in A.L. Jackman, unpublished results; conditions: ref A.L. Jackman, unpublished results; cited from earlier work
[7] = Plasma pharmacokinetics and biliary/urinary excretion in rats by HPLC; assay type: in vivo; conditions: 100 mg kg-1 i.v., CB3988 vs ICI 198583
From the text: (§1) Br. J. Cancer (1990), 62, 766 772 ? Macmillan Press Ltd., 1990 Pharmacokinetic studies with the antifolate C2-desamino-C2-methyl-N10-propargyl-2'-trifluoromethyl-5,8-dideazafolic acid (CB3988) in mice and rats using in vivo '9F-NMR spectroscopy D.R. Newell', R.J. Maxwell2, G.M.F. Bisset', D.I. Jodrell' & J.R. Griffiths2 'Drug Development Section, Institute of Cancer Research, Sutton, Surrey SM2 SNG; and 2CRC Biomedical NMR Group, St George's Hospital Medical School, Tooting, London SW] 7 ORE, UK. Summary In vivo '9F-NMR spectroscopy has been used to study the pharmacokinetics of the experimental antifolate drug CB3988 (C2-desamino-C2-methyl-N'0-propargyl-2'trifluoromethyl-5,8-dideazafolic acid) in mice and rats. NMR results have been compared to those obtained by HPLC and the effect of the inclusion of the CF3 group evaluated by comparing the pharmacokinetics of CB3988 and ICI 198583 (C2-desamino-C2-methyl- N'?-propargyl-5,8-dideazafolic acid) in rats. In mice, following the administration of CB3988 (500 mg kg-' i.v.), drug could be detected in both the upper and the lower abdomen. […] Signal detected in the lower abdomen reached maximum intensity 60-90 min after treatment. […] In the preclinical setting such measurements are usually performed using radio- chemicals and either autoradiographic or quantitative tissue distribution studies (Siddik & Newell, 1988). […]

[8] = In vivo 19F-NMR spectroscopy of CB3988 in rats; conditions: 100 mg kg-1 i.v.
From the text: (§2) Br. J. Cancer (1990), 62, 766 772 ? Macmillan Press Ltd., 1990 Pharmacokinetic studies with the antifolate C2-desamino-C2-methyl-N10-propargyl-2'-trifluoromethyl-5,8-dideazafolic acid (CB3988) in mice and rats using in vivo '9F-NMR spectroscopy D.R. Newell', R.J. Maxwell2, G.M.F. Bisset', D.I. Jodrell' & J.R. Griffiths2 'Drug Development Section, Institute of Cancer Research, Sutton, Surrey SM2 SNG; and 2CRC Biomedical NMR Group, St George's Hospital Medical School, Tooting, London SW] 7 ORE, UK. Summary In vivo '9F-NMR spectroscopy has been used to study the pharmacokinetics of the experimental antifolate drug CB3988 (C2-desamino-C2-methyl-N'0-propargyl-2'trifluoromethyl-5,8-dideazafolic acid) in mice and rats. NMR results have been compared to those obtained by HPLC and the effect of the inclusion of the CF3 group evaluated by comparing the pharmacokinetics of CB3988 and ICI 198583 (C2-desamino-C2-methyl- N'?-propargyl-5,8-dideazafolic acid) in rats. In mice, following the administration of CB3988 (500 mg kg-' i.v.), drug could be detected in both the upper and the lower abdomen. […] Signal detected in the lower abdomen reached maximum intensity 60-90 min after treatment. […] When the pharmacokinetics of CB3988 and ICI 198583 were compared the only significant difference was in the alpha phase half life which was 2-fold faster for CB3988. […] This is in contrast to N'?-propargyl-5,8-dideazafolic acid, where delayed excretion is associated with hepatic and renal toxicities. The ability to study CB3988 pharmacokinetics non-invasively by '9F-NMR spectroscopy confirms the utility of the technique and, since '9F-NMR can be applied directly to clinical investigations, it may be possible to obtain similar information in humans. It is now accepted that pharmacokinetics are an important determinant of both the activity and toxicity of anticancer drugs (Newell, 1989). This acceptance has led to the inclusion of pharmacokinetic studies in both the preclinical and early clinical evaluation of the majority of novel antitumour agents with two broad aims in mind. Firstly, the studies may be of direct clinical relevance in determining dose escalation during phase I studies (Collins et al., 1986; EORTC PAM Group, 1987) and secondly the information gained may be of value in interpreting both the toxicity and activity of the com- pound. This latter information can in turn be used to develop either new drugs or drug schedules which maximise the therapeutic potential of the agent. In order to conduct pharmacokinetic studies it is necessary to have a method which can accurately and selectively measure levels of the drug and its metabolites in biological fluids and tissues. Ideally the method should allow studies on drug levels in tumour deposits and in sensitive normal tissues since these are more likely to correlate with activity and toxicity than are levels in plasma or urine. In the preclinical setting such measurements are usually performed using radio- chemicals and either autoradiographic or quantitative tissue distribution studies (Siddik & Newell, 1988). However, in patients ethical and clinical considerations restrict the use of radioactive tracers and routine sampling of tumour or nor- mal tissue is not practicable. […] Using physiological pharmaco- kinetic modelling it is possible to extract some tissue distribu- tion information from such data although there is always considerable uncertainty attached to the results because of interpatient variation. […]

[9] = Acute toxicity in mice; assay type: in vivo; conditions: 500 mg kg-1 i.v.
From the text: as §1

[10] = Quantitative tissue distribution of CB3988 in mice by HPLC; assay type: in vivo; conditions: 500 mg kg-1 i.v.
From the text: Br. J. Cancer (1990), 62, 766 772 ? Macmillan Press Ltd., 1990 Pharmacokinetic studies with the antifolate C2-desamino-C2-methyl-N10-propargyl-2'-trifluoromethyl-5,8-dideazafolic acid (CB3988) in mice and rats using in vivo '9F-NMR spectroscopy D.R. Newell', R.J. Maxwell2, G.M.F. Bisset', D.I. Jodrell' & J.R. Griffiths2 'Drug Development Section, Institute of Cancer Research, Sutton, Surrey SM2 SNG; and 2CRC Biomedical NMR Group, St George's Hospital Medical School, Tooting, London SW] 7 ORE, UK. Summary In vivo '9F-NMR spectroscopy has been used to study the pharmacokinetics of the experimental antifolate drug CB3988 (C2-desamino-C2-methyl-N'0-propargyl-2'trifluoromethyl-5,8-dideazafolic acid) in mice and rats. NMR results have been compared to those obtained by HPLC and the effect of the inclusion of the CF3 group evaluated by comparing the pharmacokinetics of CB3988 and ICI 198583 (C2-desamino-C2-methyl- N'?-propargyl-5,8-dideazafolic acid) in rats. In mice, following the administration of CB3988 (500 mg kg-' i.v.), drug could be detected in both the upper and the lower abdomen. […] Signal detected in the lower abdomen reached maximum intensity 60-90 min after treatment. […] When the pharmacokinetics of CB3988 and ICI 198583 were compared the only significant difference was in the alpha phase half life which was 2-fold faster for CB3988. […] This is in contrast to N'?-propargyl-5,8-dideazafolic acid, where delayed excretion is associated with hepatic and renal toxicities. The ability to study CB3988 pharmacokinetics non-invasively by '9F-NMR spectroscopy confirms the utility of the technique and, since '9F-NMR can be applied directly to clinical investigations, it may be possible to obtain similar information in humans. It is now accepted that pharmacokinetics are an important determinant of both the activity and toxicity of anticancer drugs (Newell, 1989). This acceptance has led to the inclusion of pharmacokinetic studies in both the preclinical and early clinical evaluation of the majority of novel antitumour agents with two broad aims in mind. Firstly, the studies may be of direct clinical relevance in determining dose escalation during phase I studies (Collins et al., 1986; EORTC PAM Group, 1987) and secondly the information gained may be of value in interpreting both the toxicity and activity of the com- pound. This latter information can in turn be used to develop either new drugs or drug schedules which maximise the therapeutic potential of the agent. […] In the preclinical setting such measurements are usually performed using radio- chemicals and either autoradiographic or quantitative tissue distribution studies (Siddik & Newell, 1988). […]

[11] = Acute toxicity in rats; assay type: in vivo; conditions: 100 mg kg-1 i.v.
From the text: as §1

[12] = In vivo 19F-NMR spectroscopy of CB3988 in mice; conditions: 500 mg kg-1 i.v.
From the text: as §2

[13] = design: method as in Newell et al., 1988; conditions: experimental systems; ref Newell et al., 1988; cited from earlier work
[14] = upper abdomen, cannulated and bile duct-intact

Structure (SMILES): C#CCN(Cc1ccc2nc(N)[nH]c(=O)c2c1)c1ccc(C(=O)N[C@@H](CCC(=O)O)C(=O)O)cc1 [CB3717, N10-propargyl-5,8-dideazafolic acid]
- nephrotoxicity [1]: nephrotoxic
- urinary excretion and persistence in kidney [2]; 1986: delayed urinary excretion and drug still present in the kidney weeks after administration
- aqueous solubility [3]: poor solubility
- nephrotoxicity ([4]; ref Alison et al., 1985, Newell et al.): nephrotoxic
- hepatotoxicity ([4]; ref Newell et al.): hepatotoxic

Structure (SMILES): C#CCN(Cc1ccc2nc(C)[nH]c(=O)c2c1)c1ccc(C(=O)N[C@@H](CCC(=O)O)C(=O)O)c(C(F)(F)F)c1 [CB3988, C2-desamino-C2-methyl-N10-propargyl-2'trifluoromethyl-5,8-dideazafolic acid]
- reduction of cytotoxicity in comparison to ICI 198583 ([5]; ref A.L. Jackman, unpublished results): 14 fold
- reduction of inhibitory activity towards thymidylate synthase in comparison to ICI 198583 [6]: 7 fold
- alpha phase half life, fold faster than ICI 198583 [7]: 2 fold
- metabolites in NMR spectra ([8]; intact and cannulated bile ducts): no metabolites being detected
- time by which NMR signal reached the limit of detection ([8]; upper abdomen, bile duct cannulated): 15 to 20 min
- time after bolus dose at which NMR signal was detected [8, 14]: up to 2 min
- time by which NMR signal intensity reached a maximum value [8, 14]: ≤ 10 min
- half-life ([8]; rat, iv, upper abdomen, three bile duct cannulated rats, read-out: half-life for the decline in the NMR signal, individual rats): 5.6 min
- acute toxicity [9]: no acute toxicity
- CB3988 concentration in bile and urine, molar [10]: 40 to 60 mM
- CB3988 concentration in liver and small intestines ([10]; 30 and 60 min): > 1 mg g-1 wet weight
- CB3988 concentration in bile and urine (gall bladder and urinary bladder) ([10]; 30 and 60 min, HPLC): 20 to 30 mg/mL
- Conc. large intestine ([10]; 60 min, large intestine (ND)): < 0.02 mg g-1 wet weight
- acute toxicity [11]: no acute toxicity
- time by which urinary excretion is essentially complete ([12]; NMR signal in bladder): ≤ 1 h
- time at which NMR signal in the lower abdomen reached maximum intensity ([12]; lower abdomen): 60 to 90 min
- metabolites (additional peaks) in NMR spectrum ([12]; upper abdomen): No clear evidence of the presence of additional peaks
- time at which NMR signal from the upper abdomen reached maximum intensity ([12]; upper abdomen): 10 to 40 min
- half-life ([12]; mouse, upper abdomen (in vivo NMR signal), iv, analysis period 40-120 min, mean ± s.d. of three mice, read-out: half life for the decline of NMR signal from the upper abdomen (overall mean)): 28 min

Structure (SMILES): C#CCN(Cc1ccc2nc(C)[nH]c(=O)c2c1)c1ccc(C(=O)N[C@@H](CCC(=O)O)C(=O)O)cc1 [ICI 198583, C2-desamino-C2-methyl-N10-propargyl-5,8-dideazafolic acid]
- potency in cytotoxicity studies relative to CB3717 ([5]; ref Hughes et al., 1988, Jackman et al.): markedly more potent than CB3717
- retention in liver and kidney [2]; 1988: not retained in either the liver or the kidney
- aqueous solubility [3]: greatly enhanced aqueous solubility compared to CB3717
- acute liver and kidney toxicity [13]: devoid of acute liver and kidney toxicity
